Experimental data from patent publication US5104659A, “Compositions, devices and method for controlling insects” (priority 1984, dated 1992).
Where two headings read alike, the source gives them in different places.

Assays:
[1] = system: pyrethroid resistant female flies; format: in vivo
[2] = system: Non-resistant strain (house flies); test: Chamber screening evaluation of ear tags, % fly mortality, non-resistant strain; format: in vivo; details: positive control, petri dish 0.05%, 8640 min
Protocol: (§1) The ear tags are hung in a chamber covered with mesh cloth to keep the flies confined in the 12"×17"×9" space. Each chamber contains a cup of water and a supply of sugar and powdered milk.
(§2) At the start of the test, ~100 three to five day old house flies are placed in each chamber. The chambers are kept in a room with the temperature at 82° F. (27.8° C.). The flies are observed daily (except Saturday and Sunday) and mortality is recorded. At the termination of the study, the chambers are placed in a freezer overnight to kill the remaining flies, which are then counted. The percent mortality is calculated based on the number of flies that die during the observation period and the number of flies counted at the end of the study.

[3] = system: Resistant strain (flucythrinate resistant house flies); test: Chamber screening evaluation of ear tags, % fly mortality, resistant strain; format: in vivo; details: positive control, petri dish 0.05%, 8640 min
Protocol: as §1, §2

[4] = Stability of organophosphates by differential scanning calorimetry (DSC); format: physicochemical; details: for Onset of Decomposition: DSC; for decomposition points as determined by differential scanning calorimetry: below the 160° C. minimum temperatures encountered during extrusion or injection molding
Protocol: The insect control devices of the present invention containing the insecticide in the coating composition may be prepared at much lower temperatures, as low as about 20° C. The greatly-reduced processing temperatures allow the incorporation of active ingredients which are thermally unstable at elevated temperature. Examples of insecticides which may now be incorporated in such devices are dimethoate, dibrom, and chlorfenvinphos, illustrated in Table I. The decomposition points of these insecticides, as determined by differential scanning calorimetry (DSC), is below the 160° C. minimum temperatures encountered during extrusion or injection molding of plasticized PVC, and as such, these compounds can now be effectively incorporated in the present devices for control insect pests.

[5] = pyrethroid resistant female flies

SMILES | Onset of Decomposition [4] [°C] | LD50 [1, 5] | also measured
CCOP(=S)(OCC)Oc1cc(C)nc(C(C)C)n1 [Diazinon] | – | – | LD50 ([1]; in vivo): 4.0626-6.2101
CC(C)[C@H](C(=O)OC(C#N)c1cccc(Oc2ccccc2)c1)c1ccc(OC(F)F)cc1 (mixture of isomers) [flucythrinate, (±)-cyano(3-phenoxyphenyl)methyl (+)-4-(difluoromethoxy-α-(1-methyl-ethyl)benzeneacetate] | – | – | % Fly mortality - six days [2]: 77%; % Fly mortality - six days [3]: 4%
COP(=S)(OC)Oc1ccc(Sc2ccc(OP(=S)(OC)OC)cc2)cc1 [Temephos] | 142 | – | –
COP(=S)(OC)Oc1ccc([N+](=O)[O-])cc1Cl [Dicapthon] | – | 0.2649-0.6539 Micrograms/pyrethroid resistan | –
CCOC(=O)CC(SP(=S)(OC)OC)C(=O)OCC (centres unmarked) [Malathion] | – | 4.4757-6.9321 Micrograms/pyrethroid resistan | –
COP(=O)(OC)O/C(=C\Cl)c1cc(Cl)c(Cl)cc1Cl [Tetrachlorvinphos] | 190 | – | –
O=S1OCC2C(CO1)C1(Cl)C(Cl)=C(Cl)C2(Cl)C1(Cl)Cl (centres unmarked) [Endosulfan] | – | 0.3518-0.5009 Micrograms/pyrethroid resistan | –
COP(=O)(OC)OC(Br)C(Cl)(Cl)Br (centres unmarked) [Dibrom, 1,2-Dibromo-2,2-dichloroethyl dimethyl phosphate] | 103 | – | decomposition points as determined by differential scanning calorimetry [4]: < 160 °C
COP(=S)(OC)Oc1ccc(S(=O)(=O)N(C)C)cc1 [Famphur] | – | – | LD50 ([1]; in vivo): 0.1359-8.448
CCOP(=O)(OCC)OC(=CCl)c1ccc(Cl)cc1Cl [Chlorfenvinphos, 2-Chloro-1-(2,4-dichlorophenyl)-vinyl diethyl phosphate] | 157 | 0.1869-0.2626 Micrograms/pyrethroid resistan | decomposition points as determined by differential scanning calorimetry [4]: < 160 °C
Cc1cc(Cl)ccc1N=CN(C)C [Chlordimeform] | – | > 8.0 Micrograms/pyrethroid resistan | –
CCOP(=S)(OCC)Oc1nc(Cl)c(Cl)cc1Cl [Chlorpyrifos] | – | 0.3144-1.486 Micrograms/pyrethroid resistan | –
CNC(=O)ON=C(C)SC [Methomyl] | – | 0.5027-0.6807 Micrograms/pyrethroid resistan | –
CNC(=O)CSP(=S)(OC)OC [Dimethoate, O,O-dimethyl S-(N-methylcarbamoyl-methyl)phosphorodithioate] | 105 | – | decomposition points as determined by differential scanning calorimetry [4]: < 160 °C
CCCCOCCOCCOCc1cc2c(cc1CCC)OCO2 [Piperonyl butoxide] | – | – | LD50 ([1]; in vivo): 2.725-3.7726
